Results reported in US20100292231A1, “Indazole Compounds for Treating Inflammatory Disorders, Demyelinating Disorders and Cancers” (priority 2007, published 2010).
Where two headings read alike, the source gives them in different places.

How the values were obtained:
FLT3 = target: T1, FLT3 (Homo sapiens, UniProt P36888); experiment: SelectScreen FLT3 kinase dose response assay; assay type: biochemical; conditions: ATP 100 micromolar; for inhibition at 1 µM: read-out: FLT3 Inhibition E1000 (percent inhibition at 1000 nMolar); for EC50: dose response, 4 parameter Hill equation, read-out: FLT3 Inhibition EC50
T1 construct: purchased Invitrogen (SelectScreen platform)
T1 sequence (P36888 27-993): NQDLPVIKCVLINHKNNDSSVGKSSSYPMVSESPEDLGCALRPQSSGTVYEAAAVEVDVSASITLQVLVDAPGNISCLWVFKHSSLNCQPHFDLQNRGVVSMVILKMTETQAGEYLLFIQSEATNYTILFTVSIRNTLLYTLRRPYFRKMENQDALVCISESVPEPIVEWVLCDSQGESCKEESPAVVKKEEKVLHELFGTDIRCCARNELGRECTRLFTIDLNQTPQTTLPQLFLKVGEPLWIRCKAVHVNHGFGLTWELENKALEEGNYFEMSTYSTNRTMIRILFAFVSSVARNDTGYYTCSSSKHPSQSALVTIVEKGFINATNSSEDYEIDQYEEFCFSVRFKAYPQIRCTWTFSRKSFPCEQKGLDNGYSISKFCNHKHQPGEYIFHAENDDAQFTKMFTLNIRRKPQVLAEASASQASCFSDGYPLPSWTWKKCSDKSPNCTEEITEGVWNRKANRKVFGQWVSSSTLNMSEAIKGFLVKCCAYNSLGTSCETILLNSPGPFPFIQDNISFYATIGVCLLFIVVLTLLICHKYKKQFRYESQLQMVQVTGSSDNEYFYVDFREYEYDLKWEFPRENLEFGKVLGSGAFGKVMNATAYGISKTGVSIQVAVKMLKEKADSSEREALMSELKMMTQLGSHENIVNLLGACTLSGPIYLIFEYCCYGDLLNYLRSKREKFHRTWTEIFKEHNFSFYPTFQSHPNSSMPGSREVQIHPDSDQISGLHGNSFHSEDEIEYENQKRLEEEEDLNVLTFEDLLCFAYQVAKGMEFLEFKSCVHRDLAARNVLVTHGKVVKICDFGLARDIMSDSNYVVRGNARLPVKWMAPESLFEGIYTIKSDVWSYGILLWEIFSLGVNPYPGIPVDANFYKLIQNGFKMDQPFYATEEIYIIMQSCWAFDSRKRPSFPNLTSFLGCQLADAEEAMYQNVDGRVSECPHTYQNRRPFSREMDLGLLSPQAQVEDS
Experimental: The terms “IC50” and “EC50” are used interchangeably. As used herein, “EC50” refers to nMolar concentration at median percent inhibition determined by dose respose (DR) assay. As used herein, the term “E1000” refers to percent inhibition at 1000 nMolar determined by assay.
Testing of the compounds described in this invention was carried out using the SelectScreen™ platform from Invitrogen, Inc. (Carlsbad. Calif., USA) and the details of its performance are readily viewed via the web by linking to: http://www.invitrogen.com/downloads/SelectScrn_Brochure.pdf.
Briefly, the approach is based on treating each specific kinase with a unique substrate and optical reporter system in the presence of ATP at 100 micromolar. In controls, the substrate is phosphorylated and a baseline optimal response is recorded.
The compounds were then re-tested by adding graded amounts of putative inhibitor which were added in 5 separate increments to generate a dose response curve. The latter is obtained by fitting to a 4 parameter Hill equation, a sigmoid saturation equation.
For the compounds of this invention, the experimental conditions were as follows. The 2× FLT3/Tyr 02 peptide mixture was prepared in 50 mM HEPES pH 7.5, 0.01 BRIJ-35, 10 mM MgCl2, 1 mM EGTA. The final 10 uL kinase reaction consists of 0.6-76.0 ng FLT3 and 2 uM Tyr 02 peptide in 50 mM HEPES pH 7.5, 0.01% BRIJ-35, 10 mM MgCl2, 1 mM EGTA. After 1 hour kinase reaction incubation, 5 uL of a 1:64 dilution of development reagent A was added.

[1] = test system: Raw264.7 (murine macrophage-like cells); experiment: sulforhodamine B (SRB) cytotoxicity assay; assay type: cell-based; conditions: Mus musculus, Table 5 summary, read-out: IC50 SRB assay Raw 264.7
Experimental: (§1) The cytotoxic activity of compounds listed in Table 5 was determined with a sulforhodamine B (SRB) assay on panel of cell lines, including MdaMb231 (breast cancer), MV4-11 (leukemia), PC-3 (prostate cancer), U266B1 (multiple myeloma), C7 macrophages, and Raw264.7 (murine macrophage-like cells).
(§2) Cells growing in relevant media were seeded in a 96 well plate and left to adhere overnight. Cells were plated at appropriate cell densities: • MV4-11: 20.000 cells/well • Mda-Mb231: 6000 cells/well • C7: 10.000 cells/well • Raw264.7: 2000 cells/well • PC-3: 6000 cells/well • U266B1: 40.000 cells/well.
(§3) Cells were incubated before the compounds were added the next day to a top concentration of 100 μM and serially diluted 1 in 5 across the plate. After a 3 day incubation period (6 days for C7 and Raw264.7) cells were fixed with trichloroacetic acid (TCA) to end concentration of 10% for adherent cells and 16% end concentration for suspension cells for 1 hr at 4° C. before washing. Cells were stained with 0.4% sulforhodamine-B dye (SRB) in 1% acetic acid for 30 minutes and washed in 1% acetic acid. To solubilize the dye 100 μl 10 mM Tris, pH 10.5 was added and the absorbance was read at 564 nm. IC50 values were generated using the SoftMAX Pro™ software. The data is presented below in Tables 6 through 11.

CSF-1R = target: T2, CSF-1R (Homo sapiens, UniProt P07333); experiment: Kinase EC50 (10 pt curve or estimate, ATP Kmapp); assay type: biochemical; conditions: from 10 pt curve or estimate based on 1 μm inhibition assay at ATP Kmapp
T2 construct: purchased Invitrogen (SelectScreen platform)
T2 sequence (P07333 20-972): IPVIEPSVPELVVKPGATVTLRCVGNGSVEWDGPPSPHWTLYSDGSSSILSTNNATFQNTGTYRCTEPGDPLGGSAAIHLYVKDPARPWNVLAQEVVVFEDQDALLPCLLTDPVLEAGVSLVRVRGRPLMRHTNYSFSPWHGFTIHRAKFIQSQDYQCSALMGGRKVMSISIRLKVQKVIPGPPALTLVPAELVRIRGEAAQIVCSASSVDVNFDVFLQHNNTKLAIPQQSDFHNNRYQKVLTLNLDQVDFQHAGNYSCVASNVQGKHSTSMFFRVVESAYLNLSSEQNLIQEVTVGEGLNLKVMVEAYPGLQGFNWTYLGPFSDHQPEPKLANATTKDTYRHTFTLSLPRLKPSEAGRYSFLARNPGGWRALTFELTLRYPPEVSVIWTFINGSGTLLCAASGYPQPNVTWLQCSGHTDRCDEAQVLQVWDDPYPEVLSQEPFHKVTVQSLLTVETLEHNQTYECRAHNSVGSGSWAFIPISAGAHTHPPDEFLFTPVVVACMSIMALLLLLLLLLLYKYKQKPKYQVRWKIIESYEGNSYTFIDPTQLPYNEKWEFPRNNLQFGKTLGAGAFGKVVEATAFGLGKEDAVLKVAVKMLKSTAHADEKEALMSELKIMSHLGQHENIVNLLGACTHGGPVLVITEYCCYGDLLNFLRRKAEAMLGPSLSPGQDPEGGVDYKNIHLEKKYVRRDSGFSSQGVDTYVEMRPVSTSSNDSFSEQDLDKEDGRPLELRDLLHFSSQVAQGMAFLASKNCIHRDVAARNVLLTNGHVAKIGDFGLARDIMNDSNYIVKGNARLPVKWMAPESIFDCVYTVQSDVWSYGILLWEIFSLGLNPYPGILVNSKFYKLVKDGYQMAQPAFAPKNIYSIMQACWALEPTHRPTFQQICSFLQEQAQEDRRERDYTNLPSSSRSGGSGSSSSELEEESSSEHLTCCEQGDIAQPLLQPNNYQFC

[2] = test system: MdaMb231 (breast cancer) cell line; experiment: sulforhodamine B (SRB) cytotoxicity assay; assay type: cell-based; conditions: Homo sapiens
Experimental: as §1, §2, §3

[3] = MDA-MB-231, 72 h, 100 μM highest concentration, diluted 1:5 (two series), 3 day incubation, read-out: IC50 Measured Against MdaMb231 Cell Line
[4] = MDA-MB-231, Table 5 summary, read-out: IC50 SRB assay Mda MB-231

Row | SMILES | inhibition at 1 µM (FLT3; 1000 nMolar compound) [%] | EC50 (FLT3) [nM] | EC50 (CSF-1R) [nM] | FLT3 Inhibition E1000 (percent inhibition at 1000 nMolar) (FLT3; 1000 nMolar compound) [%] | IC50 [1] [nM] | IC50 [2, 3] [nM] | IC50 [2, 4] [nM]
1 | CN(C)CCCCCNc1ccc2ncn3c4ccc5[nH]ncc5c4c(=O)c1c23 [(III)] | 100 | 4 | – | – | – | – | –
2 | CN(C)c1ccc2ncn3c4ccc5[nH]ncc5c4c(=O)c1c23 [(IX)] | 98 | 9 | – | – | – | – | –
3 | CCN(CC)c1ccc2ncn3c4ccc5[nH]ncc5c4c(=O)c1c23 [(VI)] | 100 | 5 | – | – | – | – | –
4 | CNc1ccc2ncn3c4ccc5[nH]ncc5c4c(=O)c1c23 [(VII)] | 99 | 5 | – | – | – | – | –
5 | CCN(CC)CCNc1ccc2ncn3c4ccc5[nH]ncc5c4c(=O)c1c23 [(VIII)] | 87 | 69 | – | – | – | – | –
6 | O=c1c2c(NCCCN3CCOCC3)ccc3ncn(c4ccc5[nH]ncc5c14)c32 [(X)] | 98 | 11 | 280 | – | 2.7 | – | –
7 | CCN(CC)CCNc1ccc2ncn3c4ccc(O)cc4c(=O)c1c23 [Symadex, 5-(2-(diethylamino)ethylamino)-8-hydroxy-6H-imidazo[4,5,1-de]acridin-6-one, reference compound] | 96 | 24 | 430 | – | – | – | 6800

The next lines start with results.

Row | inhibition at 1 µM (FLT3; 1000 nMolar compound) [%] | EC50 (FLT3) [nM] | EC50 (CSF-1R) [nM] | FLT3 Inhibition E1000 (percent inhibition at 1000 nMolar) (FLT3; 1000 nMolar compound) [%] | SMILES | IC50 [1] [nM] | IC50 [2, 3] [nM] | IC50 [2, 4] [nM]
8 | 98 | 11 | 360 | – | CN(C)CCNc1ccc2ncn3c4ccc5[nH]ncc5c4c(=O)c1c23 [(XII)] | < 0.1 | 7400 | 7400
9 | 99 | – | 245 | 98 | CC(CCN1CCOCC1)Nc1ccc2ncn3c4ccc5[nH]ncc5c4c(=O)c1c23 (centres unmarked) [(XVI)] | 25.7 | 5100 | 5100
10 | 99 | 8 | 950 | – | CN1CCN(CCCNc2ccc3ncn4c5ccc6[nH]ncc6c5c(=O)c2c34)CC1 [(XVII)] | 2.6 | 45300 | 45300
11 | 98 | 14 | 200 | – | CN(C)CCCNc1ccc2ncn3c4ccc5[nH]ncc5c4c(=O)c1c23 [Compound (IV)] | < 0.1 | 5400 | 5400
12 | 95 | 30 | – | – | O=c1c2c(NCCN3CCOCC3)ccc3ncn(c4ccc5[nH]ncc5c14)c32 [Compound (V)] | – | – | –
13 | 99 | 11 | 490 | – | CCN(CC)CCCNc1ccc2ncn3c4ccc5[nH]ncc5c4c(=O)c1c23 [Compound (XV)] | < 0.1 | 4000 | 4000
